In US20260130395A1, “Water Dispersible Botanical Compositions” (Aquila Black Limited, priority 2021, published 2026):

Assays:
[1] = Stability of cannabinoid entourage and Vitamin E components of the powder concentrate by LCMSMS; type: physicochemical; conditions: powder stored at 21-25° C.
Method: At each time period, 0.05 g of powder was dissolved in 10 ml-15 of ethanol, diluted to fall within the analytical range, and injected into the LCMSMS for analysis.

[2] = Stability of cannabinoid compounds and Vitamin E components in Beverage 1 (AB White) by LCMSMS; type: physicochemical

Question: Which results are given for `CC(=O)Oc1c(C)c(C)c2c(c1C)CCC(C)(CCC[C@H](C)CCC[C@H](C)CCCC(C)C)O2` (stereo partly drawn) [α-Tocopheryl acetate]?
Answer: Stability of Vitamin Es in Powder Concentrate ([1]; 0 days): 2.15 mg/g powder; Stability of Vitamin Es in Powder Concentrate ([1]; 1 days): 2.19 mg/g powder; Stability of Vitamin Es in Powder Concentrate ([1]; 2 days): 2.11 mg/g powder; Stability of Vitamin Es in Powder Concentrate ([1]; 3 days): 2.18 mg/g powder; Stability of Vitamin Es in Powder Concentrate ([1]; 5 days): 2.24 mg/g powder; Stability of Vitamin Es in Powder Concentrate ([1]; 8 days): 2.23 mg/g powder; Stability of Vitamin Es in Powder Concentrate ([1]; 9 days): 2.09 mg/g powder; Stability of Vitamin Es in Powder Concentrate ([1]; 10 days): 2.09 mg/g powder; Stability of Vitamin Es in Powder Concentrate ([1]; 11 days): 2.20 mg/g powder; Stability of Vitamin Es in Powder Concentrate ([1]; 12 days): 2.17 mg/g powder; Stability of Vitamin Es in Powder Concentrate ([1]; 15 days): 2.24 mg/g powder; Stability of Vitamin Es in Powder Concentrate ([1]; 16 days): 2.15 mg/g powder; Stability of Vitamin Es in Powder Concentrate ([1]; 17 days): 2.13 mg/g powder; Stability of Vitamin Es in Powder Concentrate ([1]; 18 days): 2.10 mg/g powder; Stability of Vitamin Es in Powder Concentrate ([1]; 19 days): 2.21 mg/g powder; Stability of Vitamin Es in Powder Concentrate ([1]; 22 days): 2.11 mg/g powder; Stability of Vitamin Es in Powder Concentrate ([1]; 23 days): 2.16 mg/g powder; Stability of Vitamin Es in Powder Concentrate ([1]; 24 days): 2.09 mg/g powder; Stability of Vitamin Es in Powder Concentrate ([1]; 25 days): 2.24 mg/g powder; Stability of Vitamin Es in Powder Concentrate ([1]; 26 days): 2.10 mg/g powder; Stability of Vitamin Es in Powder Concentrate ([1]; 29 days): 2.21 mg/g powder; Stability of Vitamin Es in Powder Concentrate ([1]; 30 days): 2.08 mg/g powder; Stability of Vitamin Es in Powder Concentrate ([1]; 60 days): 2.15 mg/g powder; Stability of Vitamin Es in Powder Concentrate ([1]; 90 days): 2.24 mg/g powder; Stability of Vitamin Es in Powder Concentrate ([1]; 120 days): 2.17 mg/g powder; Stability of Vitamin Es in Powder Concentrate ([1]; 150 days): 2.18 mg/g powder; Stability of Vitamin Es in Powder Concentrate ([1]; 180 days): 2.20 mg/g powder; Stability of Vitamin Es in Powder Concentrate ([1]; 210 days): 2.15 mg/g powder; Stability of Vitamin Es in Powder Concentrate ([1]; 240 days): 2.23 mg/g powder; Stability of Vitamin Es in Powder Concentrate ([1]; 270 days): 2.13 mg/g powder; Stability of Vitamin Es in Powder Concentrate ([1]; 300 days): 2.09 mg/g powder; Stability of Vitamin Es in Powder Concentrate ([1]; 330 days): 2.15 mg/g powder; Stability of Vitamin Es in Powder Concentrate ([1]; 360 days): 2.12 mg/g powder; Stability of Vitamin Es in Powder Concentrate ([1]; 390 days): 2.21 mg/g powder; Stability of Vitamin Es in Powder Concentrate ([1]; 420 days): 2.21 mg/g powder; Stability of Vitamin Es in Powder Concentrate ([1]; 450 days): 2.07 mg/g powder; Stability of Vitamin Es in Powder Concentrate ([1]; 480 days): 2.10 mg/g powder; Stability of Vitamin Es in Powder Concentrate ([1]; 510 days): 2.15 mg/g powder; Stability of Vitamin Es in Powder Concentrate ([1]; 540 days): 2.21 mg/g powder; Stability of Vitamin Es in Powder Concentrate ([1]; 570 days): 2.13 mg/g powder; Stability of Vitamin Es in AB White ([2]; stored at 8° C., 0 days): 12.3 µg/mL; Stability of Vitamin Es in AB White ([2]; stored at 8° C., 1 days): 12.04 µg/mL; Stability of Vitamin Es in AB White ([2]; stored at 8° C., 2 days): 12.47 µg/mL; Stability of Vitamin Es in AB White ([2]; stored at 8° C., 3 days): 11.99 µg/mL; Stability of Vitamin Es in AB White ([2]; stored at 8° C., 5 days): 11.61 µg/mL; Stability of Vitamin Es in AB White ([2]; stored at 8° C., 8 days): 12.48 µg/mL; Stability of Vitamin Es in AB White ([2]; stored at 8° C., 9 days): 11.88 µg/mL; Stability of Vitamin Es in AB White ([2]; stored at 8° C., 10 days): 12.13 µg/mL; Stability of Vitamin Es in AB White ([2]; stored at 8° C., 11 days): 11.83 µg/mL; Stability of Vitamin Es in AB White ([2]; stored at 8° C., 12 days): 12.31 µg/mL; Stability of Vitamin Es in AB White ([2]; stored at 8° C., 15 days): 12.42 µg/mL; Stability of Vitamin Es in AB White ([2]; stored at 8° C., 16 days): 11.35 µg/mL; Stability of Vitamin Es in AB White ([2]; stored at 8° C., 17 days): 11.49 µg/mL; Stability of Vitamin Es in AB White ([2]; stored at 8° C., 18 days): 11.83 µg/mL; Stability of Vitamin Es in AB White ([2]; stored at 8° C., 19 days): 12.41 µg/mL; Stability of Vitamin Es in AB White ([2]; stored at 8° C., 22 days): 11.27 µg/mL; Stability of Vitamin Es in AB White ([2]; stored at 8° C., 23 days): 11.93 µg/mL; Stability of Vitamin Es in AB White ([2]; stored at 8° C., 24 days): 12.02 µg/mL; Stability of Vitamin Es in AB White ([2]; stored at 8° C., 25 days): 12.24 µg/mL; Stability of Vitamin Es in AB White ([2]; stored at 8° C., 26 days): 12.03 µg/mL; Stability of Vitamin Es in AB White ([2]; stored at 8° C., 29 days): 11.40 µg/mL; Stability of Vitamin Es in AB White ([2]; stored at 8° C., 30 days): 12.07 µg/mL; Stability of Vitamin Es in AB White ([2]; stored at 8° C., 60 days): 12.05 µg/mL; Stability of Vitamin Es in AB White ([2]; stored at 8° C., 90 days): 11.13 µg/mL; Stability of Vitamin Es in AB White ([2]; stored at 8° C., 120 days): 11.80 µg/mL; Stability of Vitamin Es in AB White ([2]; stored at 8° C., 150 days): 11.89 µg/mL; Stability of Vitamin Es in AB White ([2]; stored at 8° C., 180 days): 11.48 µg/mL; Stability of Vitamin Es in AB White ([2]; stored at 8° C., 210 days): 11.21 µg/mL; Stability of Vitamin Es in AB White ([2]; stored at 8° C., 240 days): 11.06 µg/mL; Stability of Vitamin Es in AB White ([2]; stored at 8° C., 270 days): 11.21 µg/mL; Stability of Vitamin Es in AB White ([2]; stored at 8° C., 300 days): 11.37 µg/mL; Stability of Vitamin Es in AB White ([2]; stored at 8° C., 330 days): 11.28 µg/mL; Stability of Vitamin Es in AB White ([2]; stored at 8° C., 360 days): 11.12 µg/mL; Stability of Vitamin Es in AB White ([2]; stored at 8° C., 390 days): 11.00 µg/mL; Stability of Vitamin Es in AB White ([2]; stored at 8° C., 420 days): 11.06 µg/mL; Stability of Vitamin Es in AB White ([2]; stored at 8° C., 450 days): 10.89 µg/mL; Stability of Vitamin Es in AB White ([2]; stored at 8° C., 480 days): 10.76 µg/mL; Stability of Vitamin Es in AB White ([2]; stored at 8° C., 510 days): 10.76 µg/mL; Stability of Vitamin Es in AB White ([2]; stored at 8° C., 540 days): 10.49 µg/mL; Stability of Vitamin Es in AB White ([2]; stored at 8° C., 570 days): 10.42 µg/mL; Stability of Vitamin Es in AB White ([2]; stored at 21-25° C., 0 days): 12.3 µg/mL; Stability of Vitamin Es in AB White ([2]; stored at 21-25° C., 1 days): 12.2 µg/mL; Stability of Vitamin Es in AB White ([2]; stored at 21-25° C., 2 days): 12.3 µg/mL; Stability of Vitamin Es in AB White ([2]; stored at 21-25° C., 3 days): 11.8 µg/mL; Stability of Vitamin Es in AB White ([2]; stored at 21-25° C., 5 days): 12.0 µg/mL; Stability of Vitamin Es in AB White ([2]; stored at 21-25° C., 8 days): 12.4 µg/mL; Stability of Vitamin Es in AB White ([2]; stored at 21-25° C., 9 days): 12.2 µg/mL; Stability of Vitamin Es in AB White ([2]; stored at 21-25° C., 10 days): 11.8 µg/mL; Stability of Vitamin Es in AB White ([2]; stored at 21-25° C., 11 days): 11.7 µg/mL; Stability of Vitamin Es in AB White ([2]; stored at 21-25° C., 12 days): 11.6 µg/mL; Stability of Vitamin Es in AB White ([2]; stored at 21-25° C., 15 days): 11.4 µg/mL; Stability of Vitamin Es in AB White ([2]; stored at 21-25° C., 16 days): 12.3 µg/mL; Stability of Vitamin Es in AB White ([2]; stored at 21-25° C., 17 days): 11.2 µg/mL; Stability of Vitamin Es in AB White ([2]; stored at 21-25° C., 18 days): 11.9 µg/mL; Stability of Vitamin Es in AB White ([2]; stored at 21-25° C., 19 days): 11.4 µg/mL; Stability of Vitamin Es in AB White ([2]; stored at 21-25° C., 22 days): 11.3 µg/mL; Stability of Vitamin Es in AB White ([2]; stored at 21-25° C., 23 days): 11.9 µg/mL; Stability of Vitamin Es in AB White ([2]; stored at 21-25° C., 24 days): 11.8 µg/mL; Stability of Vitamin Es in AB White ([2]; stored at 21-25° C., 25 days): 11.3 µg/mL; Stability of Vitamin Es in AB White ([2]; stored at 21-25° C., 26 days): 11.6 µg/mL; Stability of Vitamin Es in AB White ([2]; stored at 21-25° C., 29 days): 12.1 µg/mL; Stability of Vitamin Es in AB White ([2]; stored at 21-25° C., 30 days): 12.1 µg/mL; Stability of Vitamin Es in AB White ([2]; stored at 21-25° C., 60 days): 12.1 µg/mL; Stability of Vitamin Es in AB White ([2]; stored at 21-25° C., 90 days): 12.0 µg/mL; Stability of Vitamin Es in AB White ([2]; stored at 21-25° C., 120 days): 11.4 µg/mL; Stability of Vitamin Es in AB White ([2]; stored at 21-25° C., 150 days): 11.9 µg/mL; Stability of Vitamin Es in AB White ([2]; stored at 21-25° C., 180 days): 11.2 µg/mL; Stability of Vitamin Es in AB White ([2]; stored at 21-25° C., 210 days): 11.1 µg/mL; Stability of Vitamin Es in AB White ([2]; stored at 21-25° C., 240 days): 10.8 µg/mL; Stability of Vitamin Es in AB White ([2]; stored at 21-25° C., 270 days): 11.0 µg/mL; Stability of Vitamin Es in AB White ([2]; stored at 21-25° C., 300 days): 11.2 µg/mL; Stability of Vitamin Es in AB White ([2]; stored at 21-25° C., 330 days): 11.3 µg/mL; Stability of Vitamin Es in AB White ([2]; stored at 21-25° C., 360 days): 10.7 µg/mL; Stability of Vitamin Es in AB White ([2]; stored at 21-25° C., 390 days): 10.8 µg/mL; Stability of Vitamin Es in AB White ([2]; stored at 21-25° C., 420 days): 10.9 µg/mL; Stability of Vitamin Es in AB White ([2]; stored at 21-25° C., 450 days): 10.6 µg/mL; Stability of Vitamin Es in AB White ([2]; stored at 21-25° C., 480 days): 10.3 µg/mL; Stability of Vitamin Es in AB White ([2]; stored at 21-25° C., 510 days): 10.4 µg/mL; Stability of Vitamin Es in AB White ([2]; stored at 21-25° C., 540 days): 10.4 µg/mL; Stability of Vitamin Es in AB White ([2]; stored at 21-25° C., 570 days): 10.2 µg/mL
